Measurements reported in ChEMBL document CHEMBL1133043, “Potent inhibition of retinoic acid metabolism enzyme(s) by novel azolyl retinoids” (Bioorg Med Chem Lett, 2000).

Tested on: Cricetinae gen. sp.
Experiment: The compound was tested for the inhibition of all-trans retinoic acid (ATRA) catabolism using 7.27 pmol [11,12-3H]-ATRA as substrate in microsomal preparations of male hamster liver fortified with NADPH
Assay type: functional

**Q.** Which IC50 does the source give for `CC1=C(/C=C/C(C)=C/C=C/C(C)=C/C(=O)O)C(C)(C)CCC1n1cncn1` (stereo not given) here?
**A.** The IC50 was 880 nM.

**Q.** For `COC(=O)/C=C(C)/C=C/C=C(C)/C=C/C1=C(C)C(n2cncn2)CCC1(C)C` (stereo not given), which IC50 is on record?
**A.** Its IC50 is 680 nM.

**Q.** `CC1=C(/C=C/C(C)=C/C=C/C(C)=C/C(=O)O)C(C)(C)CCC1n1cnnc1` (stereo not given) was tested. Which IC50 did it give?
**A.** The IC50 was 1620 nM.

**Q.** For `CC1=C(/C=C/C(C)=C/C=C/C(C)=C/C(=O)O)C(C)(C)CCC1n1ccnc1` (stereo not given), which IC50 is on record?
**A.** Its IC50 is 100 nM.

**Q.** Which IC50 does the source give for `CC(=O)N1CCN(c2ccc(OC[C@H]3CO[C@](Cn4ccnc4)(c4ccc(Cl)cc4Cl)O3)cc2)CC1` [KETOCONAZOLE] here?
**A.** The IC50 was 34000 nM.
